Data set [1] in a line: Solubility of the compound in DMSO/TFA. The data set is classed as physicochemical.
The nature of data set [2]: Solubility of the compound in chloroform. In kind it is physicochemical.
A short description of data set [3]: Solubility of the compound in DMSO. The data set is classed as physicochemical.
A short description of data set [4]: Solubility of the compound in ethanol. The data set is classed as physicochemical.
The nature of data set [5]: Solubility of the compound in isopropanol. In kind it is physicochemical.
The nature of data set [6]: Solubility of the compound in trifluoroacetic acid. In kind it is physicochemical.
Data set [7] is described as follows: Cytotoxicity against human LN229 cells assessed as concentration required for induction of cell death after 24 hrs by crystal violet staining based light microscopic analysis. The data set is classed as functional, LN-229.
Data set [8] can be described thus: Solubility of the compound in CHCl3/TFA. In kind it is physicochemical.

On to `O=C(NNC(=O)C1C(=O)NC(=O)N(c2ccccc2)C1=O)Nc1ccc([N+](=O)[O-])cc1` (stereo not given), for which the solubility result in data set [1], in data set [2], in data set [3], in data set [4], in data set [5] and in data set [6] was “Insoluble” each time. In addition, the solubility result in data set [8] is “Insoluble”. Further, the Activity in data set [7] came to 100 µg/mL.

As to `O=C(NNC(=O)C1C(=O)NC(=O)N(c2ccccc2)C1=O)Nc1ccc(O)c([N+](=O)[O-])c1` (stereo not given), the solubility entry in data set [1], in data set [2], in data set [3], in data set [4], in data set [5] and in data set [6] was “Insoluble” in each case. Besides, the solubility entry in data set [8] is “Insoluble”. The Activity in data set [7] is 100 µg/mL.

For the molecule `CN1C(=O)NC(=O)C(C(=O)NNC(=O)Nc2ccc([N+](=O)[O-])cc2)C1=O` (stereo not given), the solubility result in data set [1], in data set [2], in data set [3], in data set [4], in data set [5] and in data set [6] was “Insoluble” each time. In data set [8], the solubility entry was “Insoluble”. The Activity in data set [7] was determined as 100 µg/mL.

As to `O=C(NNC(=O)C1C(=O)NC(=O)N(c2ccccc2)C1=O)Nc1ccc(Cl)c(Cl)c1` (stereo not given), the solubility result in data set [1], in data set [2], in data set [3], in data set [4], in data set [5] and in data set [6] was “Insoluble” each time. Further, in data set [8], the solubility result was “Insoluble”. Further, the Activity in data set [7] worked out at 100 µg/mL.

Turning to `CN1C(=O)C(C(=O)NNC(=O)Nc2ccc(C#N)cc2)C(=O)N(C)C1=O`, the solubility result in data set [1], in data set [2], in data set [3], in data set [4], in data set [5] and in data set [6] was “Insoluble” each time. Further, the solubility result in data set [8] is “Insoluble”. For the same molecule, in data set [7], the Activity worked out at 100 µg/mL.

As to `O=C(NNC(=O)C1C(=O)NC(=O)N(c2ccccc2)C1=O)Nc1ccc(O)cc1` (stereo not given), the solubility result in data set [1], in data set [2], in data set [3], in data set [4], in data set [5] and in data set [6] was “Insoluble” in each case. The solubility entry in data set [8] is “Insoluble”.

Consider `O=C(NNC(=O)C1C(=O)NC(=O)N(c2ccccc2)C1=O)Nc1cccc(O)c1` (stereo not given), for which the solubility entry in data set [1], in data set [2], in data set [3], in data set [4], in data set [5] and in data set [6] was “Insoluble” each time. Also, the solubility result in data set [8] was “Insoluble”.

As to `O=C1NC(=O)C(C(=O)NNC(=O)Nc2ccc(O)c([N+](=O)[O-])c2)C(=O)N1`, the solubility entry in data set [1] is listed as “Soluble”; in data set [2], “Insoluble”; in data set [3] it was “Insoluble”; in data set [4] it was “Insoluble”; in data set [5], “Insoluble”; in data set [6], “Soluble”. Also, the solubility result in data set [8] was “Soluble”.

Turning to `CN1C(=O)NC(=O)C(C(=O)NNC(=O)Nc2ccc(Cl)c(Cl)c2)C1=O` (stereo not given), the solubility entry in data set [1], in data set [2], in data set [3], in data set [4], in data set [5] and in data set [6] was “Insoluble” each time. In data set [8], the solubility entry is given as “Insoluble”.

On to `O=C1NC(=O)C(C(=O)NNC(=O)Nc2cccc(O)c2)C(=O)N1`, for which the solubility result is given as “Soluble” in data set [1]; “Insoluble” in data set [2]; “Insoluble” in data set [3]; “Insoluble” in data set [4]; “Insoluble” in data set [5]; “Soluble” in data set [6]. In data set [8], the solubility entry is reported as “Soluble”.

With `CN1C(=O)C(C(=O)NNC(=O)Nc2ccc(F)cc2)C(=O)N(C)C1=O`, the solubility result in data set [1], in data set [2], in data set [3], in data set [4], in data set [5] and in data set [6] was “Insoluble” throughout. Besides, in data set [8], the solubility result is “Insoluble”. Further, the Activity in data set [7] came to 100 µg/mL.

`O=C(NNC(=O)C1C(=O)NC(=O)N(c2ccccc2)C1=O)Nc1ccccc1` (stereo not given): the solubility entry in data set [1], in data set [2], in data set [3], in data set [4], in data set [5] and in data set [6] was “Insoluble” each time. Moreover, in data set [8], the solubility entry is given as “Insoluble”.

For `CN1C(=O)NC(=O)C(C(=O)NNC(=O)Nc2ccc(Cl)cc2)C1=O` (stereo not given), the solubility entry in data set [1], in data set [2], in data set [3], in data set [4], in data set [5] and in data set [6] was “Insoluble” throughout. The solubility result in data set [8] is “Insoluble”. The Activity in data set [7] was 100 µg/mL.

In the case of `O=C(NNC(=O)C1C(=O)NC(=O)N(c2ccccc2)C1=O)Nc1ccc(Cl)cc1` (stereo not given), the solubility result in data set [1], in data set [2], in data set [3], in data set [4], in data set [5] and in data set [6] was “Insoluble” in each case. The solubility entry in data set [8] is on record as “Insoluble”. Besides, in data set [7], the Activity is 100 µg/mL.

Consider `CN1C(=O)NC(=O)C(C(=O)NNC(=O)Nc2ccc(O)c([N+](=O)[O-])c2)C1=O` (stereo not given), for which the solubility entry in data set [1], in data set [2], in data set [3], in data set [4], in data set [5] and in data set [6] was “Insoluble” each time. Also, in data set [8], the solubility entry is on record as “Insoluble”.

For `CN1C(=O)C(C(=O)NNC(=O)Nc2cccc(O)c2)C(=O)N(C)C1=O`, the solubility entry in data set [1], in data set [2], in data set [3], in data set [4], in data set [5] and in data set [6] was “Insoluble” in each case. For the same molecule, the solubility entry in data set [8] was “Insoluble”.

Take `CN1C(=O)C(C(=O)NNC(=O)Nc2ccc(Cl)cc2)C(=O)N(C)C1=O`: the solubility entry in data set [1], in data set [2], in data set [3], in data set [4], in data set [5] and in data set [6] was “Insoluble” in each case. Besides, the solubility entry in data set [8] is listed as “Insoluble”. In data set [7], the Activity amounted to 10 µg/mL.

Turning to `CN1C(=O)NC(=O)C(C(=O)NNC(=O)Nc2ccccc2)C1=O` (stereo not given), the solubility entry in data set [1], in data set [2], in data set [3], in data set [4], in data set [5] and in data set [6] was “Insoluble” each time. Moreover, in data set [8], the solubility result is reported as “Insoluble”.

In the case of `CN1C(=O)NC(=O)C(C(=O)NNC(=O)Nc2ccc(C#N)cc2)C1=O` (stereo not given), the solubility result in data set [1], in data set [2], in data set [3], in data set [4], in data set [5] and in data set [6] was “Insoluble” each time. Further, the solubility entry in data set [8] is on record as “Insoluble”.

On to `CN1C(=O)C(C(=O)NNC(=O)Nc2ccccc2)C(=O)N(C)C1=O`, for which the solubility result in data set [1], in data set [2], in data set [3], in data set [4], in data set [5] and in data set [6] was “Insoluble” in each case. Besides, in data set [8], the solubility entry was “Insoluble”.

As to `O=C1NC(=O)C(C(=O)NNC(=O)Nc2ccc(F)cc2)C(=O)N1`, the solubility entry in data set [1] is recorded as “Soluble”; in data set [2], “Insoluble”; in data set [3], “Insoluble”; in data set [4] it was “Insoluble”; in data set [5] it was “Insoluble”; in data set [6], “Soluble”. For the same molecule, in data set [8], the solubility result is recorded as “Soluble”.

As for `O=C(NNC(=O)C1C(=O)NC(=O)N(c2ccccc2)C1=O)Nc1ccc(F)cc1` (stereo not given), the solubility entry in data set [1], in data set [2], in data set [3], in data set [4], in data set [5] and in data set [6] was “Insoluble” in each case. Besides, the solubility entry in data set [8] was “Insoluble”.

In the case of `N#Cc1ccc(NC(=O)NNC(=O)C2C(=O)NC(=O)NC2=O)cc1`, the solubility entry was “Soluble” in data set [1]; “Insoluble” in data set [2]; “Insoluble” in data set [3]; “Insoluble” in data set [4]; “Insoluble” in data set [5]; “Soluble” in data set [6]. Moreover, the solubility entry in data set [8] is “Soluble”.

These data come from ChEMBL document CHEMBL3862023, “Synthesis of N-aryl and N-arylcarbamoylamino derivatives of 1,3-diazinane-5-carboxamide and their activity against glioblastoma LN-229 cell line” (Bioorg Med Chem, 2016).
